Reference: PMC12036578, “Expression and molecular characterization of an intriguing hyaluronan synthase (HAS) from the symbiont “Candidatus Mycoplasma liparidae” in snailfish” (PeerJ, 2025)
Where two headings read alike, the source gives them in different places.

Legend:
snHAS [1] = assay: HA formation by HABP-HRP HA detection kit (TMB, OD450), Michaelis-Menten fit; format: biochemical, Candidatus Mycoplasma liparidae; details: 15 mM MgCl2, 50 mM PBS, 5 mM DTT, 37 °C, 30 µM enzyme, read-out: snHASE173D
Text: HA formation by HABP-HRP HA detection kit (TMB, OD450), Michaelis-Menten fit on snHAS

snHAS [2] = assay: as above; format: biochemical, Candidatus Mycoplasma liparidae; details: 15 mM MgCl2, 50 mM PBS, 5 mM DTT, 37 °C, 30 µM enzyme

SMILES | Km (snHAS [1]; 1 mM UDP-GlcNAc fixed) | Km (snHAS [2]; 1 mM UDP-GlcNAc fixed) | Km (snHAS [1]; 1 mM UDP-GlcA fixed) | Km (snHAS [2]; 1 mM UDP-GlcA fixed)
O=C(O)[C@H]1O[C@H](OP(=O)(O)OP(=O)(O)OC[C@H]2O[C@@H](n3ccc(=O)[nH]c3=O)[C@H](O)[C@@H]2O)[C@H](O)[C@@H](O)[C@@H]1O [UDP-GlcA] | 210 ± 20 µM | 39 ± 5 µM |  | 
CC(=O)N[C@H]1[C@@H](OP(=O)(O)OP(=O)(O)OC[C@H]2O[C@@H](n3ccc(=O)[nH]c3=O)[C@H](O)[C@@H]2O)O[C@H](CO)[C@@H](O)[C@@H]1O [UDP-GlcNAc] |  |  | 410 ± 70 µM | 258 ± 45 µM
